The source of these data is ChEMBL document CHEMBL1201862, “PubChem BioAssay data set” (2004).

The source made the active and inactive calls.

The test system of test [1] is HEK293. Briefly: inhibition of NOD1-driven NF-kB reporter – cell-based, luminescence, uHTS, primary screen (AID 1578). Conditions: Homo sapiens. In kind it is functional.
Test [2] has as its system HEK293. Briefly: cells. It is filed as functional, cell-based. Conditions: Homo sapiens.
The subject of test [3] is HEK293. The experiment in a line: cells. In kind it is functional, cell-based. Conditions: Homo sapiens. This is another data set of the same source.
In test [4] the test system is HEK293. Briefly: NOD2 signaling inhibitors in MDP-stimulated cells, cell-based, uHTS, luminescence (AID 2001). It is filed as functional. Conditions: Homo sapiens.
Test [5] can be described thus: Trypanosoma cruzi growth suppression in host cells – NIH3T3 host cells, beta-gal luminescence, confirmation (AID 2044).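 Note: intracellular parasites grown in NIH/3T3 mouse fibroblasts as host cells; luminescent beta-galactosidase reporter signal from transgenic T. cruzi replicating inside host cells; inhibitors lower the luminescence signal.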 In kind it is functional, cell-based.
Test [6] is described as follows: NIH3T3 cell viability loss – ATP luminescence, mouse fibroblasts, counter-screen, dose response (AID 2010).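 Note: cells exposed to compound for about 90 hours before reading.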 It is filed as functional, cell-based.
Test [7] is described as follows: HEK-293T viability loss after treatment – luminescence, T-cell screen hits, cytotoxicity control for TCR NF-kB inhibitor project, dose response (AID 489026).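 Note: cells exposed to compound about 14 hours before the viability readout.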 In kind it is functional, cell-based.
The next test deals with INS1. The experiment in a line: INS-1E survival protection against cytokine death – cell-based, luminescence, retest, dose response (AID 449756).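 Note: cell death triggered by IL-1 beta plus TNF-alpha plus IFN-gamma mixture; protective hits raise ATP signal compared with cytokine alone wells.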 It is filed as functional. The following applies: Rattus norvegicus.
Test [8] is described as follows: reduction of Shn3 3'UTR-driven luciferase in osteoblasts – cell-based, Clone20 osteoblasts, firefly luciferase, cherry-picked, dose response (AID 624132).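 Note: firefly luciferase luminescence from reporter carrying the Shn3 3'UTR in osteoblasts.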 In kind it is functional.
The nature of test [9]: loss of viability in HepG2 cells – cell-based, CellTiter-Glo, cherry-picked, cytotoxicity control for Shn3 inhibitor project, dose response (AID 624134). In kind it is functional.
Test [10] can be described thus: non-specific 3'UTR reporter inhibition in Clone20-Shn3RL – cell-based, Renilla luciferase, cherry-picked, counter-screen for Shn3 inhibitor project, dose response (AID 624133). It is filed as functional.
Test [11] deals with COUP transcription factor 2 (Homo sapiens, UniProt P24468). Briefly: Luminescence-based cell-based high throughput dose response assay to identify inhibitors of COUP-TFII (NR2F2). In kind it is functional.
Test [12] in a line: cells.
Test [13] deals with Transitional endoplasmic reticulum ATPase (Homo sapiens, UniProt P55072, C522A). The experiment in a line: Luminescence counterscreen assay for p97 inhibitors: dose response biochemical high throughput screening assay to identify inhibitors of the C522A mutant p97 ATPase: synthesized compounds. [Related pubchem assays: 1481, 1517, 1551 ].
For test [14], the target named is Transitional endoplasmic reticulum ATPase (Homo sapiens, UniProt P55072). The experiment in a line: Luminescence dose response biochemical high throughput screening assay for inhibitors of the p97 ATPase: synthesized compounds. [Related pubchem assays: 1481, 1517 ].
Test [15] in a line: HPDE-C7 pancreatic duct cell viability loss – fluorescence, HTS (AID 430). It is filed as functional, cell-based. Conditions: Homo sapiens.
Test [16] in a line: microbe, parasite or virus in culture. It is filed as functional. The following applies: Mycobacterium tuberculosis.
The nature of test [17]: viability loss of HPDE-C7K cells – cell-based, fluorescence, HTS, primary screen (AID 431). It is filed as functional. Conditions: Homo sapiens.
Test [18] can be described thus: viability loss in CEM21 cells – cell-based, CellTiter-Glo luminescence, cherry-picked, cytotoxicity control for viral fusion inhibitor project, dose response (AID 652042).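 Note: potency for signal decrease meaning cytotoxicity.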 It is filed as functional.
The nature of test [19]: blockers of HIV-1 ZM109 envelope-driven cell-cell fusion – HeLa effector, CEM target cells, luciferase, cherry-pick, dose response (AID 652058).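 Note: luciferase signal from HIV-1 Env mediated cell-cell fusion of effector and target cells.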 In kind it is functional, cell-based.
A short description of test [20]: cells. It is filed as functional, cell-based.
A short description of test [21]: Luminescence-based dose response cell-based high throughput screening assay for cytotoxic compounds using the IEC-6 intestinal epithelial cell line. [Related pubchem assays: 1858 (Summary AID.), 1825 (Counterscreen.), 1907 (Confirmation screen.)]. It is filed as functional.
Test [22] is described as follows: cells. In kind it is functional, cell-based. This is another data set of the same source.
In a further test the target is Albumin (Bos taurus, UniProt P02769). The experiment in a line: Counterscreen for inhibitors of T-cell receptor (TCR)-CD3 interaction: Fluorescence-based biochemical high throughput dose response assay to identify inhibitors of T-cell receptor (TCR)-CD3 interaction using a TAMRA-labeled BSA probe. In kind it is functional.
Test [23] can be described thus: HGIII-sPLA2 enzyme inhibition potency – biochemical, QFRET, IC50, dose response (AID 743457).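 Note: green fluorescence rise as the enzyme cleaves BODIPY PC-A2 in liposomes.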
Test [24] addresses Endoplasmic reticulum aminopeptidase 1 (Homo sapiens, UniProt Q9NZ08). Briefly: inhibition of human ERAP1 enzyme activity – biochemical, cherry-pick, set 2, plate reader, dose response (AID 743314).
The next test addresses Paired box protein Pax-8 (Homo sapiens, UniProt Q06710). The experiment in a line: PAX8 transcriptional activity inhibition in RMG-I – RMG-I cells, luciferase, cherry-pick, dose response (AID 687027).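 Note: luciferase reporter driven by Pax8 target thyroperoxidase promoter measured by SteadyGlo luminescence.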 It is filed as functional, cell-based.
Test [25] can be described thus: OVCAR8 cell viability loss – plate reader, dry powder samples, PAX8 project, dose response (AID 743197). Conditions: OVCAR-8. It is filed as functional, cell-based.
Test [26] is described as follows: lung carcinoma cell viability loss – CellTiter-Glo luminescence, dry powder, set 17, dose response (AID 1117284). It is filed as functional, cell-based. Conditions: A549.
The nature of test [27]: T. cruzi growth inhibition in host cells, dose response, cell-based, plate reader, dry powder, set 2 (AID 652275). In kind it is functional.

Sequence of COUP transcription factor 2 (P24468 whole entry): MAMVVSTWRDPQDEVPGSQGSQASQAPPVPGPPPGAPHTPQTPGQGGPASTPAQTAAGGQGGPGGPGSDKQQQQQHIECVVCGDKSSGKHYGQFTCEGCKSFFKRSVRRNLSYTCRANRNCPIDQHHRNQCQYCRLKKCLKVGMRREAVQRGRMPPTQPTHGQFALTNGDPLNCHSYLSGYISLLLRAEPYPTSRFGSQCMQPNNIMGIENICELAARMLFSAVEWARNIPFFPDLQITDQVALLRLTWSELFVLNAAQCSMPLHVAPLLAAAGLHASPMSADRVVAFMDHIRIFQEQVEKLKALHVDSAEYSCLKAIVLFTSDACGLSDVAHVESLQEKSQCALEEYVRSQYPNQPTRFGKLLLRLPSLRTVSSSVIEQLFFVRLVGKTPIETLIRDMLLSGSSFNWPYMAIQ
Sequence of Transitional endoplasmic reticulum ATPase (Homo sapiens, UniProt P55072, C522A) (P55072 2-806 C522A limits assumed): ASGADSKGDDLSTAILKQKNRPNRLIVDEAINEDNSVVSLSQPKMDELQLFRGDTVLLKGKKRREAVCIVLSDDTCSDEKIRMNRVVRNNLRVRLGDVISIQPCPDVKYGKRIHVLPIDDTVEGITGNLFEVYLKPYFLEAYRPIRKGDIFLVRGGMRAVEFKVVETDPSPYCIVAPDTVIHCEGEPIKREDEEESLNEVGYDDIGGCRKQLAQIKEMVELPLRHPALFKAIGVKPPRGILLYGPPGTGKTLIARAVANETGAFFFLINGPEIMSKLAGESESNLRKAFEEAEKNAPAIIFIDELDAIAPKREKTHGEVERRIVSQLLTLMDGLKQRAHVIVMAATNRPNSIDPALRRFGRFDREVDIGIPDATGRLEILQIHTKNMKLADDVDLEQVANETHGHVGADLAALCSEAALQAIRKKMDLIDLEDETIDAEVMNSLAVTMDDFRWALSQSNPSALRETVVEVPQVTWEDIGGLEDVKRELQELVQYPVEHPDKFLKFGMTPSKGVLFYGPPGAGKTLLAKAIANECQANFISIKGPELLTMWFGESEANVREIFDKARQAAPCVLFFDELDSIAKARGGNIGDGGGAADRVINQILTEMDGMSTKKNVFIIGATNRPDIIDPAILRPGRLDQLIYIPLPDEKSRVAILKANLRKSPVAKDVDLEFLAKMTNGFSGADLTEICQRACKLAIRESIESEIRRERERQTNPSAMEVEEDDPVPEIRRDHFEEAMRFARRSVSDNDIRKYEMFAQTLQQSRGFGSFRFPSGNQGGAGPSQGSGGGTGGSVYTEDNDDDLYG
Sequence of Transitional endoplasmic reticulum ATPase (Homo sapiens, UniProt P55072) (P55072 whole entry): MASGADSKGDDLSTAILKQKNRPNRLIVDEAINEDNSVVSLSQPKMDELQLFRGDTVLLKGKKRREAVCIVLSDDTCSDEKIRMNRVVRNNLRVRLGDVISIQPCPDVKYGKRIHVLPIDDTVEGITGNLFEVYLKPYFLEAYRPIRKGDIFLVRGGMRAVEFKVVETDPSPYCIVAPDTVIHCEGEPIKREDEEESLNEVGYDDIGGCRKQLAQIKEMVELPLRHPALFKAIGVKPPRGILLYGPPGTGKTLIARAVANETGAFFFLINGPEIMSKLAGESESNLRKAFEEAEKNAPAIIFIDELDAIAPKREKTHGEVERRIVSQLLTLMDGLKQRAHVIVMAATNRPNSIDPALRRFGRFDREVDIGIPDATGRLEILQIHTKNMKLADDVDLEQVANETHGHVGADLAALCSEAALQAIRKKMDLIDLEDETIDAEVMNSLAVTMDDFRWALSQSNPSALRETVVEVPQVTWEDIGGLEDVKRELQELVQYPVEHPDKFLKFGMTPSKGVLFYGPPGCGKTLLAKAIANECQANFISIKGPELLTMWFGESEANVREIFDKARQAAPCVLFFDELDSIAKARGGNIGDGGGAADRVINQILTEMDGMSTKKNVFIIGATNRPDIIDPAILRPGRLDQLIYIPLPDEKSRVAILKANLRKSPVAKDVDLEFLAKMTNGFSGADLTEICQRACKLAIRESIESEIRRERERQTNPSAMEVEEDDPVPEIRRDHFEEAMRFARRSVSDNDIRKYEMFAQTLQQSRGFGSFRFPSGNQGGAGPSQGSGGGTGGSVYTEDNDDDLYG
Sequence of Endoplasmic reticulum aminopeptidase 1 (Q9NZ08 whole entry): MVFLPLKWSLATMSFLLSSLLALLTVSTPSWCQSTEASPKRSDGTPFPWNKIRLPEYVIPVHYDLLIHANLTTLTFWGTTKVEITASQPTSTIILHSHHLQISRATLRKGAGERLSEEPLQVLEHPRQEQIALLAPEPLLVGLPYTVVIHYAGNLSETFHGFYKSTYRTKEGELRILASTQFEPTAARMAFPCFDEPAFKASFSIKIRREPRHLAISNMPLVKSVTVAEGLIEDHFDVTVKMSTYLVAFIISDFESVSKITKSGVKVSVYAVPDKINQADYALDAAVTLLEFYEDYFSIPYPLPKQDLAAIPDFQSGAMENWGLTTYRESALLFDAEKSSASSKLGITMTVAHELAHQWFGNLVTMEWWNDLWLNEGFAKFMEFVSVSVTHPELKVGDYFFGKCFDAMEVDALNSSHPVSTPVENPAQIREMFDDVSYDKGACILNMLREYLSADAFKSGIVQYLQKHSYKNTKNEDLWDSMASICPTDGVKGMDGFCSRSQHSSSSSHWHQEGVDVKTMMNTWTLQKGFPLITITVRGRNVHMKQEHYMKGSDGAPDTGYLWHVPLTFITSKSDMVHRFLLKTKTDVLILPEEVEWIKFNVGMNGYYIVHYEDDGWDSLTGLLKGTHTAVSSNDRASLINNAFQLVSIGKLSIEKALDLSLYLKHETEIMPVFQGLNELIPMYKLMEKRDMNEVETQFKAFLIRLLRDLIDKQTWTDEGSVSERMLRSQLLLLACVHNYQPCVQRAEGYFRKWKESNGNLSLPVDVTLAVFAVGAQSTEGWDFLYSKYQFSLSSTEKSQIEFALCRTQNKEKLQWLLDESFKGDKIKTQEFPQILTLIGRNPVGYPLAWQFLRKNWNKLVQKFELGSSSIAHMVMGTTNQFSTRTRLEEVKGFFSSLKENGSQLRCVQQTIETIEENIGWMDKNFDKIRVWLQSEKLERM
Sequence of Albumin (P02769 whole entry): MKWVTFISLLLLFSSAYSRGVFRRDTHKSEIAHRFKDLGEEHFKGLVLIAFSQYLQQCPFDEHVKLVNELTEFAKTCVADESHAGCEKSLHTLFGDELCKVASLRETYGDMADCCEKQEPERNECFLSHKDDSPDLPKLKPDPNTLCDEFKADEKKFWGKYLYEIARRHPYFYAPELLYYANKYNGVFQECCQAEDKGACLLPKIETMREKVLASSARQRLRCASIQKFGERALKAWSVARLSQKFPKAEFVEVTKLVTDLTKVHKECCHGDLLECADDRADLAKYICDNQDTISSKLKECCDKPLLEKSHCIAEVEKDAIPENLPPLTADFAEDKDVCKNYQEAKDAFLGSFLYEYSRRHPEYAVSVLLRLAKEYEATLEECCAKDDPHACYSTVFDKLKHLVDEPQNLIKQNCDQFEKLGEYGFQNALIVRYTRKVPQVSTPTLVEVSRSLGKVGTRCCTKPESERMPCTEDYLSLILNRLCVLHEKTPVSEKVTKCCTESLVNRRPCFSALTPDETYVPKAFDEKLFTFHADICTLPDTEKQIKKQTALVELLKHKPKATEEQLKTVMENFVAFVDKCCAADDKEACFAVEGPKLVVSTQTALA
Sequence of Paired box protein Pax-8 (Q06710 whole entry): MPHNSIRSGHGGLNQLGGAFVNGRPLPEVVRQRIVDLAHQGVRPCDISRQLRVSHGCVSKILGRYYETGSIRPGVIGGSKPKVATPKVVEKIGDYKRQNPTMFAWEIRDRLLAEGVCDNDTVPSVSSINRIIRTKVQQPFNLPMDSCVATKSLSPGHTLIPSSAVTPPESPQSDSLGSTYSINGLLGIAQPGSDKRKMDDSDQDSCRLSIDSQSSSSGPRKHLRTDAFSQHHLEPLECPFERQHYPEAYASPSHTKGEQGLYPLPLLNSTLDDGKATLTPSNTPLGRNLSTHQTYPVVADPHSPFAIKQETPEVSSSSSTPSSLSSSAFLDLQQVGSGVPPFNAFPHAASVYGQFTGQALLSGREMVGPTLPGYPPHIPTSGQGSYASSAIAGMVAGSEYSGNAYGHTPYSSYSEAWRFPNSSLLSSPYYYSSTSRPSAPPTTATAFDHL

On to `COc1ccc(C2=Nn3c([n+](C)c4ccccc43)SC2)cc1`, for which the EC50 with HEK293 [1] was 11.1 µM (active); in test [5], < 0.1 µM (active); in test [6], > 60 µM (not active); in “cells [12]” it was 0.087 µM (active). Further, the half-inhibitory concentration (IC50) with HEK293 [2] was 12.2 µM (active); with HEK293 [3], > 20 µM (inactive); in the test with HEK293 [4], 13 µM (inactive); in test [7], > 80 µM (inactive); in test [11], 5.66 µM (active). In addition, the concentration at half-maximal activity (AC50) in the test with INS1 was 1.54 µM (active); in test [8], 1.16 µM (active); in test [9], > 70 µM (inactive); in test [10] it was 3.2 µM (active).
As for `CCOC(=O)/C(C#N)=C/c1ccc(F)cc1[N+](=O)[O-]`, the IC50 in test [13] and in test [14] was > 50 µM (not active) in each case.
`Cc1cc(-c2csc(Nc3ccc(C#N)cc3)n2)c(C)n1CCc1ccccc1`: the 50% inhibitory concentration (IC50) in test [13] and in test [14] was > 50 µM (not active) each time.
`Cc1ccc(Cl)cc1S(=O)(=O)N1CCC(C(=O)NC2CCN(Cc3ccccc3)CC2)CC1`: the IC50 in test [11] is 12 µM (inactive).
`Cc1oc(C(=O)Nc2ccc(O)cc2)cc1COc1ccccc1`: the concentration giving a half-maximal response (EC50) was 16.6 µM (active) in test [15] and 13.9 µM (active) in test [17]. Moreover, the CC50 in test [16] is > 40 µM (active).
With `C[C@@H]1CN([C@H](C)CO)S(=O)(=O)c2ccc(C#Cc3cccc(F)c3)cc2O[C@@H]1CN(C)C(=O)CN1CCOCC1`, the AC50 was 40.3 µM (active) in test [18] and 0.899 µM (active) in [19].
Regarding `C/C(=N\NC(=O)c1nnn(-c2nonc2N)c1-c1ccccc1)c1ccccc1O`, the EC50 is 113 µM (active) in “cells [20]”, 0.617 µM (active) in test [5], 58.5 µM (active) in “cells [22]” and 3.76 µM (active) in test [6]. The half-maximal inhibitory concentration (IC50) is 1.19 µM (active) in [21], > 94.1 µM (inactive) at Albumin and > 122 µM (inactive) in test [23]. Besides, in the test with INS1, the AC50 is 0.353 µM (active).
In the case of `CCCNC(=O)N(C)C[C@@H]1Oc2ncc(-c3ccncc3)cc2C(=O)N([C@H](C)CO)C[C@@H]1C`, the AC50 in test [24] was 16.9 µM (active).
As for `C[C@@H]1CN([C@@H](C)CO)S(=O)(=O)c2ccc(C#C[C@@H](C)O)cc2O[C@@H]1CN(C)Cc1ccc(-c2ccccc2)cc1`, the concentration at half-maximal activity (AC50) is 12.3 µM (active) at Paired box protein Pax-8, > 70 µM (inactive) in test [25] and > 52 µM (inactive) in test [26].
Regarding `C[C@H]1CN([C@@H](C)CO)C(=O)c2cccc(NC(=O)c3ccncc3)c2O[C@@H]1CN(C)Cc1ccc(F)cc1Cl`, in test [27], the AC50 was 0.0324 µM (active).
